According to ChEMBL document CHEMBL1135817, “New templates for syntheses of ring-fused, C(10) beta-turn peptidomimetics leading to the first reported small-molecule mimic of neurotrophin-3” (2002):

Columns and labels:
[1] = target: NT-3 growth factor receptor (Mus musculus) (UniProt Q6VNS1); test: Binding affinity for TrkC receptor transfected cells at 20 uM with 2 nM NT-3
[2] = target: NT-3 growth factor receptor (Mus musculus) (UniProt Q6VNS1); test: Binding affinity for TrkC receptor transfected cells at 20 uM with 20 nM anti-TrkC-Ab
[3] = target: High affinity nerve growth factor receptor (Homo sapiens) (UniProt P04629); test: Binding affinity for TrkA receptor transfected NIH3T3 cells at 20 uM with 2 nM NGF; type: cell-based
NIH3T3 [4] = test: Binding affinity for NIH3T3 cells at 20 uM (negative control); type: functional, Mus musculus
[5] = target: NT-3 growth factor receptor (Mus musculus) (UniProt Q6VNS1); test: Binding affinity for TrkC receptor transfected cells at 20 uM without NT-3
[6] = target: High affinity nerve growth factor receptor (Homo sapiens) (UniProt P04629); test: Binding affinity for TrkA receptor transfected NIH3T3 cells at 20 uM without NGF; type: cell-based
[7] = target: NT-3 growth factor receptor (Mus musculus) (UniProt Q6VNS1); test: Binding of FITCanti-TrkC-Ab to TrkC receptor transfected NIH3T3 cells (positive control); type: cell-based
[8] = target: NT-3 growth factor receptor (Mus musculus) (UniProt Q6VNS1); test: Survival of TrkC receptor transfected NIH3T3 cells with 2000 pM NT-3 (positive control); type: functional, cell-based
[9] = target: High affinity nerve growth factor receptor (Homo sapiens) (UniProt P04629); test: Binding of FITCanti-TrkA-Ab to human TrkA receptor transfected NIH3T3 cells (positive control); type: cell-based
[10] = target: NT-3 growth factor receptor (Mus musculus) (UniProt Q6VNS1); test: Survival of TrkC receptor transfected NIH3T3 cells at o.4 uM without NT-3; type: functional, cell-based
[11] = target: NT-3 growth factor receptor (Mus musculus) (UniProt Q6VNS1); test: Survival of TrkC receptor transfected NIH3T3 cells at 10 uM with 100 pM NT-3; type: functional, cell-based
[12] = target: NT-3 growth factor receptor (Mus musculus) (UniProt Q6VNS1); test: Survival of TrkC receptor transfected NIH3T3 cells at o.4 uM with 100 pM NT-3; type: functional, cell-based
[13] = target: NT-3 growth factor receptor (Mus musculus) (UniProt Q6VNS1); test: Survival of TrkC receptor transfected NIH3T3 cells at 50 uM without NT-3; type: functional, cell-based
NIH3T3 [14] = test: Binding of irrelevant FITC-Ab to NIH3T3 cells (negative control); type: functional, Mus musculus
[15] = target: NT-3 growth factor receptor (Mus musculus) (UniProt Q6VNS1); test: Survival of TrkC receptor transfected NIH3T3 cells at 2 uM without NT-3; type: functional, cell-based
[16] = target: NT-3 growth factor receptor (Mus musculus) (UniProt Q6VNS1); test: Survival of TrkC receptor transfected NIH3T3 cells with suboptimal NT-3 (100 pM); type: functional, cell-based
[17] = target: NT-3 growth factor receptor (Mus musculus) (UniProt Q6VNS1); test: Survival of TrkC receptor transfected NIH3T3 cells at 2 uM with 100 pM NT-3; type: functional, cell-based
[18] = target: NT-3 growth factor receptor (Mus musculus) (UniProt Q6VNS1); test: Survival of TrkC receptor transfected NIH3T3 cells at 10 uM without NT-3; type: functional, cell-based
[19] = target: NT-3 growth factor receptor (Mus musculus) (UniProt Q6VNS1); test: Survival of TrkC receptor transfected NIH3T3 cells at 50 uM with 100 pM NT-3; type: functional, cell-based
[20] = target: NT-3 growth factor receptor (Mus musculus) (UniProt Q6VNS1); test: Survival of TrkC receptor transfected NIH3T3 cells without NT-3 (negative control); type: functional, cell-based

Sequence of High affinity nerve growth factor receptor (Homo sapiens) (P04629 33-796 limits assumed): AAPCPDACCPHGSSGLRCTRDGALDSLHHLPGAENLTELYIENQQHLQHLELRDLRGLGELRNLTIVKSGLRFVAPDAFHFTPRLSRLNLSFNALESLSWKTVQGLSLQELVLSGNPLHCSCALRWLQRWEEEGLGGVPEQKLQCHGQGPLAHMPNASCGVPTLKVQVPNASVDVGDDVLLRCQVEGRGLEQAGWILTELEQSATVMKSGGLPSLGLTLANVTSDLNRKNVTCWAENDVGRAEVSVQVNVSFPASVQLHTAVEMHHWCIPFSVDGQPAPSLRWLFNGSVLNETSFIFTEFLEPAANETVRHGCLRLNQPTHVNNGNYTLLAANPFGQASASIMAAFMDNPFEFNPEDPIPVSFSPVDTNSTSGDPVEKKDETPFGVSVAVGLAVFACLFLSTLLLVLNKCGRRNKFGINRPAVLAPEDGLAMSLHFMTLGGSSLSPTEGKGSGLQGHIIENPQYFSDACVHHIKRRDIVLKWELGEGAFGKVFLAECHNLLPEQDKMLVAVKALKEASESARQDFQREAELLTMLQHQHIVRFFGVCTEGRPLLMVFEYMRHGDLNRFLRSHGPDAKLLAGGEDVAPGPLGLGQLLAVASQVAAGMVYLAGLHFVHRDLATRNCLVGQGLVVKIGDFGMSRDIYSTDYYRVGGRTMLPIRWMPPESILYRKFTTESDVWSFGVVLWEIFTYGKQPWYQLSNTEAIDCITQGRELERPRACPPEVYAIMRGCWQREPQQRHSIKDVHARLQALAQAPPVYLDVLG
Sequence of NT-3 growth factor receptor (Mus musculus) (Q6VNS1 whole entry): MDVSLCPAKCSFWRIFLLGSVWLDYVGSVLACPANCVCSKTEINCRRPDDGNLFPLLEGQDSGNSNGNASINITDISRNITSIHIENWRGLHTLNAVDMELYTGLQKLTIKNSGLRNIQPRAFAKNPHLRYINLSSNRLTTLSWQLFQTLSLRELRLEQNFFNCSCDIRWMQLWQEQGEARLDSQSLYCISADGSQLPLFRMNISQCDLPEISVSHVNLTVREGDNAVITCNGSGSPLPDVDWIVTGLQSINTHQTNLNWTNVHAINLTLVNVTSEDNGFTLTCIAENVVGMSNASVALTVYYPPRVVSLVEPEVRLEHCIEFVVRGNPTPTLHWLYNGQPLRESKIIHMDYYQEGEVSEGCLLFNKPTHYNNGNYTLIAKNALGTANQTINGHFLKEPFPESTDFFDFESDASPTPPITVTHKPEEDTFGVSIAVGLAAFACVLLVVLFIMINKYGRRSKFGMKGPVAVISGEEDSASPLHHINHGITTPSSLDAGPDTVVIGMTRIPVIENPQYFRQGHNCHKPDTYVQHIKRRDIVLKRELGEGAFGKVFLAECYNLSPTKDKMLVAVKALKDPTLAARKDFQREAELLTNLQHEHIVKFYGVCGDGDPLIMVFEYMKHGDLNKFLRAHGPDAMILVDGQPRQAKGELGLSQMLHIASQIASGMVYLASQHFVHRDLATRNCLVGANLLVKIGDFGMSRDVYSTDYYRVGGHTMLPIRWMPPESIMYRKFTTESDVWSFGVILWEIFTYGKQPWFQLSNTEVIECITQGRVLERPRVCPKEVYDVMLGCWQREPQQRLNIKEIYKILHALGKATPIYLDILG

Max binding [1] | Max binding [2] | Max binding [3] | Max binding [5] | Max binding [6] | SMILES | Max binding (NIH3T3 [4]) | Max binding [7] | Survival [8] | Max binding [9] | Survival [10] | Survival [11] | Survival [12] | Survival [13] | Max binding (NIH3T3 [14]) | Survival [15] | Survival [16] | Survival [17] | Survival [18] | Survival [19] | Survival [20]
42% | 40% | 9% | 11% | 22% | NCCCC[C@@H]1NC(=O)c2cc(NC(=O)CC/N=C(S)/N=C3/C=CC(=C4c5ccc(O)cc5Oc5cc(O)ccc54)C(C(=O)O)=C3)ccc2NCc2ccc(C(N)=O)cc2NC(=O)[C@H](CO)NC1=O | 14% | – | – | – | – | – | – | – | – | – | – | – | – | – | –
– | – | – | – | – | NCCCC[C@@H]1NC(=O)c2cc([N+](=O)[O-])ccc2NCc2ccc(C(N)=O)cc2NC(=O)[C@H](CO)NC1=O | – | 22% | 100% | 71% | 0.2% | 38% | 32% | 0.2% | 14% | 0.1% | 26% | 33% | 0.4% | 36% | 0%
